For 18 compounds, Ki and IC50 results are on record in ChEMBL document CHEMBL3745640, “Challenges in the Discovery of Indoleamine 2,3-Dioxygenase 1 (IDO1) Inhibitors” (J Med Chem, 2015).

For assay [1], the target named is T1, Indoleamine 2,3-dioxygenase 1 (Homo sapiens, UniProt P14902). The experiment in a line: Inhibition of human recombinant IDO1 using L-tryptophan as substrate after 15 mins by Dixon plot analysis.
For assay [2], the target named is T1, Indoleamine 2,3-dioxygenase 1. The experiment in a line: Inhibition of 6His-tagged human recombinant IDO1 expressed in Escherichia coli EC 539 using L-tryptophan as substrate after 1 hr by plate reader analysis.
The nature of assay [3]: Competitive inhibition of rabbit small intestine IDO1 by double reciprocal plot analysis in presence of L-tryptophan. Details: species or system Oryctolagus cuniculus.
Assay [4] addresses T1, Indoleamine 2,3-dioxygenase 1. The experiment in a line: Inhibition of N-terminal His-tagged human recombinant IDO1 expressed in Escherichia coli using L-tryptophan as substrate by methylene blue/ascorbate assay.
Assay [5] shares this target. Nature of the assay: Inhibition of IDO (unknown origin).
The target is the same in assay [6]. The experiment in a line: Inhibition of N-terminal His-tagged human recombinant IDO1 expressed in Escherichia coli using tryptophan as substrate by UV-visible absorption spectroscopy.
Assay [7] shares this target. Nature of the assay: Inhibition of IFN-gamma-stimulated IDO1 activity in human HeLa cells using L-tryptophan as substrate after 48 hrs by spectrophotometric analysis. In kind it is cell-based.
Assay [8] has the same target. Nature of the assay: Inhibition of N-terminal His-tagged human recombinant IDO1 expressed in Escherichia coli using L-tryptophan as substrate preincubated for 10 mins followed by substrate addition measured after 30 mins by plate reader analysis.
For assay [9] the target is unchanged. The experiment in a line: Inhibition of human IDO1 in HEK293 cells after 20 hrs by plate reader assay. Format: cell-based.
Assay [10] has the same target. The experiment in a line: Inhibition of C-terminal 6His-tagged human IDO using L-tryptophan as substrate preincubated for 5 mins followed by substrate addition measured after 15 mins by spectrophotometric analysis.
For assay [11] the target is unchanged. The experiment in a line: Inhibition of N-terminal hexa-Histidine tagged human IDO1 expressed in Escherichia coli using L-tryptophan as substrate after 30 mins by HPLC analysis.
The target is the same in assay [12]. Nature of the assay: Inhibition of human recombinant IDO1 expressed in yeast IS20-2B using tryptophan as substrate by methylene blue/ascorbate assay.
Assay [13] shares this target. Nature of the assay: Inhibition of human IDO using L-tryptophan as substrate preincubated for 5 mins followed by substrate addition measured after 15 mins by spectrophotometric analysis.
Assay [14] shares this target. Nature of the assay: Noncompetitive inhibition of human recombinant IDO1 expressed in Escherichia coli by Michaelis-Menton nonlinear regression plot analysis in presence of L-tryptophan.
Assay [15] shares this target. Nature of the assay: Competitive inhibition of 6His-tagged human recombinant IDO expressed in Escherichia coli BL21DE3pLys.

T1 sequence (P14902 whole entry): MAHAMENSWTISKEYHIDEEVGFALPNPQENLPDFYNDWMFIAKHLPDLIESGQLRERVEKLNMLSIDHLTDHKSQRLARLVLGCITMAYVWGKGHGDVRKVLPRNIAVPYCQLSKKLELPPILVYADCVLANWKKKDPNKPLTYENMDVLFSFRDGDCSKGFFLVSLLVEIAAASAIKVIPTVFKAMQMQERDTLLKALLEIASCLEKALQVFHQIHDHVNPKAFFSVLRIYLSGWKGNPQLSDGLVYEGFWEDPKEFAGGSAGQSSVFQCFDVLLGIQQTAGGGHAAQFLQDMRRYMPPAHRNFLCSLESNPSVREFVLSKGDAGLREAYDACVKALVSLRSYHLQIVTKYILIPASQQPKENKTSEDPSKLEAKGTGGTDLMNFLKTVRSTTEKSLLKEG

As usually defined, the Ki is a measure of affinity in units of concentration, obtained from inhibition or displacement. For `N=C1C=C(N)C(=O)c2[nH]c(=O)ccc21`, in assay [1], the Ki amounted to 4300 nM. A word on the IC50: it is the point on the concentration scale where inhibition reaches its midpoint. As to `COc1cccc2c1C(=O)C1=C(C[C@H](Cn3cc(-c4ccccc4)nn3)O[C@@H]1C)C2=O`, the 50% inhibitory concentration (IC50) in assay [2] came to 6000 nM. Regarding `N[C@@H](CC1=CCC=CC1)C(=O)O`, in assay [3], the Ki amounted to 230000 nM.

With `CC1(C)CCC[C@]2(C)[C@H]3CC=C(C=O)CC(O)[C@]3(C=O)CC[C@@H]12` (stereo partly drawn), the half-maximal inhibitory concentration (IC50) in [4] amounted to 7700 nM. Compound `CN1C(=O)c2ccccc2-n2c(nc3ccccc3c2=O)C1[C@H](O)c1ccccc1` (stereo partly drawn) registered an IC50 in [5] of 21000 nM. For the compound `Nc1oc2c(-c3ccnc(N4CCOCC4)c3)nccc2c1Nc1ccc(F)c(Cl)c1`, in assay [6], the half-inhibitory concentration (IC50) was under 200 nM. As to `CCc1ccccc1Nc1cnn[nH]1`, in assay [7], the IC50 is under 1000 nM.

Consider `COC1=CC(=O)c2oc(C)c(CO)c2C1=O`, for which, in [8], the IC50 worked out at 240 nM. In turn, `CCCC(CCC)Oc1c(Br)cc(-c2ccccc2-c2nnn[nH]2)cc1NC(=O)Nc1ccccc1F` came in with an IC50 in assay [9] of 3 nM.

For the compound `CC(C)CN(CC(C)C)c1ccc(C(CC(=O)O)C(F)(F)F)cc1NC(=O)Nc1ccc(F)cc1F` (stereo not drawn), in [9], the concentration for half-maximal inhibition (IC50) was 3 nM. For the compound `O=C(Cc1ccccc1)Nc1ccc(CCOc2ccccc2-c2cnc[nH]2)cc1`, the concentration for half-maximal inhibition (IC50) in assay [10] was under 1000 nM.

Regarding `COc1cc(OC(=O)c2c(C)c(C)c(OC(=O)c3c(C)cc(O)c(C)c3O)c(C)c2OC)c(C)c(C)c1C(=O)O`, in assay [5], the IC50 was found to be 15000 nM. The compound `Cc1ccc(CC(=O)Nc2cc(-c3ccccc3-c3nnn[nH]3)ccc2N2CC3CC2CN3Cc2ccccc2)cc1` (stereo not drawn) displayed an IC50 in [9] of 5 nM.

The compound `N#CC(Nc1ccc(F)c(Cl)c1)c1cc(Cl)ccc1O` (stereo not drawn) returned a half-inhibitory concentration (IC50) in [11] of under 200 nM. `C/N=C(N)/N=C(\N)Nc1cc2ccccc2c2ccccc12`: the inhibitory constant (Ki) in [12] was 1500 nM.

`NOCc1ccccc1` registered an IC50 in assay [13] of under 10000 nM. Regarding `CC1(C)CCC2=C(O1)c1ccccc1C(=O)C2=O` [LAPACHONE], in [14], the Ki came out at 100 nM. With `CN1C(=O)C(Cc2c[nH]c3ccccc23)NC1=S` (stereo not drawn) [NECROSTATIN], in assay [15], the Ki is 12000 nM.
